Results as given in publication PMC8434491, “Targeting the Integrated Stress Response Kinase GCN2 to Modulate Retroviral Integration” (Molecules, 2021).
Where a name gives a salt, the structure may show the parent alone. Read-outs that look alike come from different tables or passages of the source.

Tests used:
[1] = molecular target: T1, IN's phosphorylation catalyzed by GCN2 (Homo sapiens, UniProt Q9P2K8); experiment: In vitro phosphorylation assay: phosphorylation of IN catalyzed by GCN2; type: biochemical, human GCN2 / HIV-1 IN; conditions: for inhibition at 100 µM: read-out: decrease (inhibition) in IN phosphorylation; for concentration giving full inhibition of IN phosphorylation: serial dilutions from 300 µM to 137 nM
T1 construct: expressed as a truncated version (192-1024) in fusion after a glutathione S-transferase tag; purchased SignalChem (GCN2); IN made in house in E. coli BL21 pLys E12-11G; host or cells: E. coli BL21 pLys (IN)
T1 sequence (Q9P2K8 192-1024): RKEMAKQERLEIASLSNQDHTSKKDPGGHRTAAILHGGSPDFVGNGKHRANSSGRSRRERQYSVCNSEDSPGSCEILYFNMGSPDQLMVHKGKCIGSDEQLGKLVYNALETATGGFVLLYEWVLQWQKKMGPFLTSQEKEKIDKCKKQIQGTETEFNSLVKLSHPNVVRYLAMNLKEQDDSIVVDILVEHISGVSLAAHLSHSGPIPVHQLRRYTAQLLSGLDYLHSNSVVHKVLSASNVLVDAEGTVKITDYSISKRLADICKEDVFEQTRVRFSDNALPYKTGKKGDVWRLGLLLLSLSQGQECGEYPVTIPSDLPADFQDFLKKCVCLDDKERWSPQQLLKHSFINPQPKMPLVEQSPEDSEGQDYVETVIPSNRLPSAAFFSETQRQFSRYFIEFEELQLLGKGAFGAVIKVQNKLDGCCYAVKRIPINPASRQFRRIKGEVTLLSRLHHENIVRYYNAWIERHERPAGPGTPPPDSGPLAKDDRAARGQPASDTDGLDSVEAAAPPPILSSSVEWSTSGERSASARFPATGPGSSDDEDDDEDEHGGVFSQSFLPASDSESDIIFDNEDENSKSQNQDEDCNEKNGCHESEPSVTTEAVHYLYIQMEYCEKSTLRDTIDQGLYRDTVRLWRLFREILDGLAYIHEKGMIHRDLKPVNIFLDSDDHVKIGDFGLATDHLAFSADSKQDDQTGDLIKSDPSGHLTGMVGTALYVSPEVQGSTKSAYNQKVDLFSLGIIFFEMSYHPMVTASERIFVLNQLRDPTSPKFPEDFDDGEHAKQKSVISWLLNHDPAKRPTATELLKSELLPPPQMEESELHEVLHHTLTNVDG
Protocol: Enzymes. GCN2 was purchased from SignalChem (EIF2AK4, cat. #E12-11G). […] Recombinant full-length IN was expressed in E. coli BL21 pLys (IPTG induction) and purified on a nickel chelating column, as described. Integrity and purity were checked by direct Coomassie coloration of elution fractions on SDS-PAGE before dialysis to remove imidazole.
In vitro phosphorylation assay. […] Reactions (20 µL) were stopped after a 60 min incubation at 30 °C by adding 10 µL of loading buffer [80 mM Tris-HCl pH 6.8, 100 mM DTT, 10% glycerol, 1% sodium dodecyl sulfate (SDS) and 0.05% bromophenol blue]. Samples were then loaded onto a 10% denaturating SDS-PAGE. After protein separation (120 V for 120 min) the gel was stained using Coomassie Brilliant Blue R-250. Autoradiography was performed using an imaging plate (Fujifilm, Tokyo, Japan) and images were obtained with a FLA-5000 Imaging System (Fujifilm).

[2] = molecular target: T2, GCN2 (Homo sapiens, UniProt Q9P2K8); experiment: In vitro phosphorylation assay: GCN2 activation (auto-phosphorylation); type: biochemical; conditions: for decrease in GCN2 auto-phosphorylation: single dose of 100 µM, compared to DMSO
T2 construct: expressed as a truncated version (192-1024) in fusion after a glutathione S-transferase tag; purchased SignalChem E12-11G
T2 sequence (Q9P2K8 192-1024): T1 sequence (Q9P2K8 192-1024)
Source text: Enzymes. GCN2 was purchased from SignalChem (EIF2AK4, cat. #E12-11G). This human recombinant protein was expressed as a truncated version (192-1024) in fusion after a glutathione S-transferase tag (approximate molecular weight of 132 kDa). Recombinant full-length IN was expressed in E. coli BL21 pLys (IPTG induction) and purified on a nickel chelating column, as described. Integrity and purity were checked by direct Coomassie coloration of elution fractions on SDS-PAGE before dialysis to remove imidazole. Protein concentration was determined using a NanoDrop 2000 with the following parameters: molecular weight: 34 kDa, extinction coefficient ϵ = 50,460 mol^−1cm^−1L.
In vitro phosphorylation assay. Phosphorylation of IN (700 nM) was carried out using 25 nM of GCN2 in a reaction buffer containing 10 mM Tris-HCl pH 7.5, 50 mM NaCl, 15 mM MgCl2, 7.5 mM MnCl2, 10 mM DTT, 0.005% Nonidet P-40, 100 µM ATP, 50 µCi/µL of [γ-^32P]-ATP (3000 Ci/mmole, Perkin Elmer). Reactions (20 µL) were stopped after a 60 min incubation at 30 °C by adding 10 µL of loading buffer [80 mM Tris-HCl pH 6.8, 100 mM DTT, 10% glycerol, 1% sodium dodecyl sulfate (SDS) and 0.05% bromophenol blue]. Samples were then loaded onto a 10% denaturating SDS-PAGE. After protein separation (120 V for 120 min) the gel was stained using Coomassie Brilliant Blue R-250. Autoradiography was performed using an imaging plate (Fujifilm, Tokyo, Japan) and images were obtained with a FLA-5000 Imaging System (Fujifilm).

[3] = molecular target: T3, IN–GCN2 interaction (UniProt P04585+Q9P2K8); experiment: IN–GCN2 interaction assay (AlphaLISA); type: binding, HIV-1 IN / human GCN2; conditions: for effect on the IN–GCN2 interaction: A-92: over a wide concentration range, MK-2048: nanomolar or low micromolar ranges
T3 construct: expressed as a truncated version (192-1024) in fusion after a glutathione S-transferase tag; Recombinant full-length IN was expressed in E. coli BL21 pLys; purchased SignalChem (GCN2); IN made in house in E. coli BL21 pLys E12-11G; host or cells: E. coli BL21 pLys (IN)
Source text: We developed an in vitro plate-based assay to monitor the interaction between GCN2 and IN using the AlphaLISA technology (Figure 1). Taking advantage of the tags present on each recombinant protein (6xHis for IN prepared “in-house”, and GST for GCN2 commercially available), we used specific beads that fluoresce only when they are in close proximity (<200 nm). The signal obtained (light count) is directly proportional to the binding of IN to GCN2 (homogenous solution assay at steady state).
IN–GCN2 interaction assay. Protein–protein interactions were monitored using the AlphaLISA technology (Perkin Elmer) taking advantage of the GST and 6xHis tags of GCN2 and IN, respectively. Accordingly, AlphaScreen GSH Donor beads and AlphaLISA Nickel Acceptor beads were used (Perkin Elmer). Reactions were carried out at room temperature by incubating GCN2 with drugs or DMSO for 5 min before addition of AlphaLISA Nickel Acceptor beads. After 5 min, IN was added to the reaction mixture and incubated for 20 min before adding the AlphaScreen GSH Donor beads. This interaction assay was performed in conditions similar to the in vitro phosphorylation assay, already described, using 25 nM GCN2 and 700 nM (except indicated otherwise) in a reaction buffer containing 50 mM Tris-HCl pH 7.5, 40 mM NaCl, 1 mM dithiothreitol (DTT), 0.05% Tween 20, 0.1% bovine serum albumin (BSA), 10 µg/mL of each donor and acceptor beads. Alpha signal was measured using an EnSight plate reader (Perkin Elmer) 120 min after the addition of the latest component of the reaction (unless indicated otherwise).

[4] = molecular target: T4, HIV-1 IN (Human immunodeficiency virus type 1 group M subtype B, UniProt P04585); experiment: Integrase reaction, strand transfer (ST), gel-based; type: biochemical
T4 construct: Recombinant full-length IN was expressed in E. coli BL21 pLys; 6xHis; made in house; host or cells: E. coli BL21 pLys
Protocol: (§1) Oligonucleotides. Oligonucleotides were purchased from Integrated DNA Technologies, Inc. (Leuven, Belgium), purified on polyacrylamide gel through electro-elution and dissolve in water. 19T ([…]) and 21B ([…]) correspond to the cleaved and non-cleaved strands specifically recognized by HIV-1 IN. Radiolabeling of 19T at the 5′-end was performed with [γ-^32P] ATP (Perkin-Elmer, Villebon-sur-Yvette, France) using T4 polynucleotide kinase (Promega, Charbonnières-les-Bains, France), according to the manufacturers’ instructions. Unincorporated isotopes were removed using illustra microspin G-25 Columns (Cytiva life sciences, Amersham, Little Chalfont, United Kingdom). DNA duplexes were annealed using an equimolar ratio of the complementary strand 21B, heating to 95 °C, and slow cooling to room temperature.
Integrase reactions. IN reactions were carried out by adding molecules or an equivalent volume of 100% DMSO (dimethyl sulfoxide, used as the drug solvent) to a mixture of 20 nM duplex DNA (19T/21B) and 400 nM IN in 50 mM MOPS pH 7.2, 7.5 mM MgCl2, and 14 mM 2-mercaptoethanol. Reactions were performed at 37 °C for 1 h and quenched by addition of an equal volume (10 µL) of loading buffer [formamide containing 1% SDS (sodium dodecyl sulfate), 0.25% bromophenol blue, and xylene cyanol]. Reaction products were separated in 16% polyacrylamide denaturing sequencing gels. Dried gels were visualized using a FLA-5000 imaging system (Fujifilm). Densitometric analyses were performed using the ImageQuant 5.1 software (GE Healthcare, Chicago, IL, USA) and data analyzed using Prism 6.05 software (GraphPad, San Diego, CA, USA).

[5] = molecular target: T4, HIV-1 IN; experiment: Integrase reaction, 3'-processing (3'-P), gel-based; type: biochemical; conditions: gel-based assay
Protocol: as §1
Integrase reactions. IN reactions were carried out by adding molecules or an equivalent volume of 100% DMSO (dimethyl sulfoxide, used as the drug solvent) to a mixture of 20 nM duplex DNA (19T/21B) and 400 nM IN in 50 mM MOPS pH 7.2, 7.5 mM MgCl2, and 14 mM 2-mercaptoethanol. […] Densitometric analyses were performed using the ImageQuant 5.1 software (GE Healthcare, Chicago, IL, USA) and data analyzed using Prism 6.05 software (GraphPad, San Diego, CA, USA).

[6] = pilot screen, single dose of 100 µM
[7] = single dose of 100 µM, compared to DMSO
[8] = pilot screen, single dose of 100 µM, read-out: inhibition of the IN–GCN2 interaction signal
[9] = 100 µM, dose-response experiment

Cc1ccc(C(=O)Nc2ccc(CN3CCN(C)CC3)c(C(F)(F)F)c2)cc1C#Cc1cnc2cccnn12 [NSC758487, Ponatinib]
inhibition at 100 µM [1]: > 80%
concentration giving full inhibition of IN phosphorylation [1]: without reaching full inhibition
decrease in GCN2 auto-phosphorylation [2]: around 35%

CCc1c2c(nc3ccc(OC(=O)N4CCC(N5CCCCC5)CC4)cc13)-c1cc3c(c(=O)n1C2)COC(=O)[C@]3(O)CC [irinotecan, Irinotecan hydrochloride]
inhibition of the IN–GCN2 interaction signal [3, 6]: no effect

CC[C@@]1(O)C(=O)OCc2c1cc1n(c2=O)Cc2cc3c(CN(C)C)c(O)ccc3nc2-1 [topotecan, Topotecan hydrochloride]
inhibition of the IN–GCN2 interaction signal [3, 6]: no effect

CC1(C)CCC(CN2CCN(c3ccc(C(=O)NS(=O)(=O)c4ccc(NCC5CCOCC5)c([N+](=O)[O-])c4)c(Oc4cnc5[nH]ccc5c4)c3)CC2)=C(c2ccc(Cl)cc2)C1 [NSC766270, Venetoclax]
decrease (inhibition) in IN phosphorylation [1, 7]: no impact
inhibition at 100 µM [3, 8]: 93.6%
decrease in GCN2 auto-phosphorylation [2]: no impact

CC1=C(/C=C/C(C)=C/C=C/C(C)=C/C(=O)O)C(C)(C)CCC1 [NSC122758, Tretinoin]
decrease (inhibition) in IN phosphorylation [1, 7]: no impact
value (signal) at the highest dose in the dose-response experiment [3, 9]: 10.5%
inhibition at 100 µM ([3]; 100 µM, dose-response experiment, corresponding to the printed signal, read-out: inhibition at the highest dose in the dose-response experiment): 89.5%
inhibition at 100 µM [3, 8]: 87.3%
decrease in GCN2 auto-phosphorylation [2]: no impact

Clc1ccc(C(c2ccccc2Cl)C(Cl)Cl)cc1 (stereo not shown) [NSC38721, Mitotane]
inhibition at 100 µM [1, 7]: ~30%
effect on IN strand transfer activity ([4]; serial dilutions from 100 µM to 45.7 nM, only IN present): inactive
value (signal) at the highest dose in the dose-response experiment [3, 9]: 248.5%
increase in signal (IN–GCN2 interaction) ([3]; pilot screen, 100 µM, compared to the DMSO control): 299.9%

CCN1C[C@@H](C)n2c(c(O)c3c(=O)n(Cc4ccc(F)c(Cl)c4)nc(C(=O)NC)c32)C1=O [MK-2048]
IC50 ([4]; gel-based assay, read-out: apparent IC50, inhibition of ST): 20 nM
effect on the IN–GCN2 interaction [3]: did not affect
IC50 ([3]; read-out: apparent IC50, IN–GCN2 interaction): ~100000 nM
IC50 [5]: 2000 nM

Cc1cn(-c2cc(NC(=O)c3ccc(C)c(Nc4nccc(-c5cccnc5)n4)c3)cc(C(F)(F)F)c2)cn1 [NSC747599, Nilotinib]
inhibition at 100 µM [1, 7]: 40%
decrease in GCN2 auto-phosphorylation [2]: no effect

c1nn(C2CCOCC2)cc1Nc1ncc2nnn(-c3ccc4cn[nH]c4c3)c2n1 [A-92]
doses with a slight impact on IN–GCN2 interaction [3]: above 333 µM
inhibition at 1000 µM ([3]; 1 mM): < 20%
effect on the IN–GCN2 interaction [3]: did not affect
IC50 ([2]; read-out: apparent IC50, GCN2's activation (autophosphorylation)): ~200 nM

C=CC(=O)Nc1cc(Nc2nccc(-c3cn(C)c4ccccc34)n2)c(OC)cc1N(C)CCN(C)C [NSC779217, Osimertinib]
inhibition at 100 µM [1, 7]: ~20%
inhibition at 100 µM [3, 8]: 83.5%
decrease in GCN2 auto-phosphorylation [2]: around 20%

CNCc1ccc(-c2[nH]c3cc(F)cc4c3c2CCNC4=O)cc1 [NSC756644, Rucaparib phosphate]
concentration giving full inhibition of IN phosphorylation [1]: 300 µM
decrease (inhibition) in IN phosphorylation [1, 7]: inhibited
concentration giving full inhibition of GCN2 auto-phosphorylation ([2]; serial dilutions from 300 µM to 137 nM): 300 µM
decrease in GCN2 auto-phosphorylation [2]: ~80%
